According to paper PMC9504178 (Viruses, 2022):

What was measured:
NL09 or NL11 strain = type: cell-based, influenza A virus
NL09 or NL11 = type: cell-based, influenza A virus
NL09 and NL11 strains = type: cell-based, influenza A virus
[1] = tested on: A/Netherlands/602/09 (NL09); type: cell-based, influenza A virus
[2] = tested on: A/Netherlands/241/11 (NL11); type: cell-based, influenza A virus
NL09 and NL11 = type: cell-based, influenza A virus
c-Raf = details: cited from earlier work; for higher selectivity for c-Raf than vemurafenib: no reference given
B-Raf = details: no reference given; cited from earlier work
IAV = details: single donor; cited from earlier work
[3] = tested on: IAV laboratory strains (PR8 and WSN) and pandemic H1N1 (CA09); set-up: method as in earlier work; details: A549 cells, AF 1μM, 15 hpi; cited from earlier work
[4] = tested on: human precision-cut lung slices (hPCLSs); test: LDH-Glo cytotoxicity assay in hPCLSs; details: [10×]max: AF 50 μM, DA 100 μM, RG 25 μM; relative to Triton-X 100 positive control, 20% cut-off
NL11 (H3N2) = type: cell-based, influenza A virus
NL09 = type: cell-based, influenza A virus
[5] = tested on: A(H1N1)pdm09 A/Netherlands/602/09 (NL09); type: cell-based, influenza A virus

Row | Structure (SMILES) | effect on viral entry (NP staining) (NL09 or NL11 strain) | time at which inhibition of virus replication in hPCLSs was observed (NL09 or NL11) | reduction of the titers of both viruses (NL09 and NL11 strains) | relative infectivity, NL09 [1] | relative infectivity, NL11 [2] | highest viral titer reduction at MOI = 0.1 (NL09 and NL11) | significance of viral titer reduction in infected hPCLSs (NL09 or NL11) | effect on viral titers, NL11 compared with NL09 (NL09 and NL11 strains) | reduction in viral titers (NL09 and NL11 strains) | time dependence of effect on virus replication (NL09 and NL11) | also measured
1 | Cn1cc(-c2cc3c(N4CCN(c5ncc([C@@](C)(N)c6ccc(F)cc6)cn5)CC4)ncnn3c2)cn1 [AV, avapritinib] | no obvious effects on viral entry | ≤ 12 hpi | 10- to 30 fold | 80% | 81% | 10 fold |  |  |  |  | 
2 | CNC(=O)c1cc(Oc2ccc(NC(=O)Nc3ccc(Cl)c(C(F)(F)F)c3)c(F)c2)ccn1 [RG, regorafenib] | inhibited | ≤ 12 hpi |  | 75% | 80% | 10,000 fold | consistently significant after 48 hpi | significantly stronger in NL11-infected cells | 10- to 1000 fold | greater effect on virus replication at the early time points (24 hpi) | selectivity for c-Raf relative to B-Raf (c-Raf): ~ 10 fold; higher selectivity for c-Raf than vemurafenib (c-Raf): 10 fold; higher selectivity for B-Raf than vemurafenib (B-Raf): 10- to 100 fold; potency in primary bronchial cells vs A549 cells (IAV): less potent in primary bronchial cells than in A549 cells; antiviral effect in hPCLSs compared to A549 cells (NL09 or NL11): more potent antiviral effect
3 | CC(C)(C)c1nc(-c2cccc(NS(=O)(=O)c3c(F)cccc3F)c2F)c(-c2ccnc(N)n2)s1 [DA, dabrafenib] | inhibited | ≤ 12 hpi |  | 117% | 126% | 100 fold | consistently significant after 48 hpi | significantly stronger in NL11-infected cells | 10- to 100 fold |  | higher selectivity for c-Raf than vemurafenib (c-Raf): 10 fold; higher selectivity for B-Raf than vemurafenib (B-Raf): 10- to 100 fold
4 | Cc1cc(Nc2ncnc3ccc(NC4=NC(C)(C)CO4)cc23)ccc1Oc1ccn2ncnc2c1 [TU, tucatinib] | no obvious effects on viral entry | ≤ 12 hpi | 10- to 30 fold | 86% | 100% | 10 fold |  |  |  |  | 
5 | CCOc1cc2ncc(C#N)c(Nc3ccc(OCc4ccccn4)c(Cl)c3)c2cc1NC(=O)/C=C/CN(C)C [NE, neratinib] | inhibited | ≤ 12 hpi | 10- to 30 fold | 70% | 92% | 100 fold |  |  | 40- to 50 fold | greater effect on virus replication at the early time points (24 hpi) | antiviral effect in hPCLSs compared to A549 cells (NL09 or NL11): more potent antiviral effect
6 | CN(C)C/C=C/C(=O)Nc1cc2c(Nc3ccc(F)c(Cl)c3)ncnc2cc1O[C@H]1CCOC1 [AF, afatinib] | inhibited | ≤ 12 hpi |  |  | 65% | 1000 fold | consistently significant after 48 hpi | significantly stronger in NL11-infected cells | 100- to 3000 fold | greater effect on virus replication at the early time points (24 hpi) | effect on viral replication [3]: 2- to 5 fold; relative cell viability over mock-infected treated controls (A549 cells): only marginally decreased the relative viability; cytotoxicity (LDH release) in hPCLSs at [10×]max [4]: > 20%; % Luminescence (relative to untreated / normalized to GFP), NL11 infection (NL11 (H3N2)): 50%
7 | O=C(Nc1cnn2ccc(N3CCC[C@@H]3c3cc(F)ccc3F)nc12)N1CC[C@H](O)C1 [LA, larotrectinib] | no obvious effects on viral entry | ≥ 72 hpi | 10- to 30 fold | 60% | 91% | 100 fold |  |  |  | greater effect on virus replication at the early time points (24 hpi) | relative intracellular to extracellular (I/E) viral RNA Ct ratio (egress) (NL09): did not observe significant differences in any single step of viral replication; NL09 viral titer reduction [5]: ~ 9 fold
